Test results published in patent US20230390401A1, “RAPIDLY RELEASED BIOORTHOGONAL CAGING GROUPS” (University of Utah Research Foundation, priority 2018, published 2023).
Like-named read-outs stand apart in the source and are kept apart here.

Experiments:
[1] = Kinetics of Tz-induced release from ICPr/ICPrc groups in PBS:DMSO; settings: for bimolecular rate constant k2: PEG-DPTz c=0.2 mM, excess probe c=2 mM, T=37° C., PBS:DMSO (9:1), pseudo-first order fit; for k1,elim, release of fluorophore from 3-oxopropyl intermediate: in PBS, after reaction with PEG-DPTz
Method: (§1) Fitting the disappearance of PEG-DPTz (c=0.2 mM) absorbance in the presence of excess ICPr-O-NA or ICPrc-NH-NA (c=2 mM;T=37° C., PBS:DMSO (9:1)) to a pseudo-first order rate equation provided the bimolecular rate constants k2(ICPr-O-NA)=4.0±0.2 M^−1s^−1 and k2(ICPrc-NH-NA)=1.1±0.2 M^−1s^−1, respectively. Release of the fluorophores in PBS from the postulated 3-oxopropyl intermediate was delayed relative to the reaction of the ICPr/ICPrc-groups with PEG-DPTz (k1,elim(HO-NA)=1.6×10^−4 s^−1; k1,elim(H2N-NA)=5.00×10^−5 s^−1; FIG. 4B, right column) in agreement with studies of cargo release from such groups. The aldehyde intermediate was detectable by NMR in DMSO-d6:D2O (9:1). To our delight, fluorophore release in diluted human serum (T=37° C., PBS:serum (1:1)) reached completion in few minutes because serum albumin can catalyze the β-elimination reaction.

[2] = Stability in serum in the absence of Tz; type: in vitro ADME, human
[3] = Fluorophore release (β-elimination) in diluted human serum; settings: T=37° C., PBS:serum (1:1)
Method: as §1

A549 lung cancer cells = assay: Cytotoxicity assay (CellTiter-Glo 2.0 viability)
Method: A549 lung cancer cells (ATCC, USA) were maintained in a humidified CO2 (5%) incubator at 37° C. in RPMI (Thermo Fisher, USA) supplemented with 10% fetal bovine serum in the presence of 1% Penicillin-Streptomycin-Glutamine (Thermo Fisher, USA) and 0.2% Normocin (InvivoGen, USA).
The cells were plated in 96-well TC treated plates (PerkinElmer, USA) at a 6,000 cells/well density 24 h prior to the addition of the drugs. All drugs, prodrugs and PEG-DPTz in DMSO stock solution were serially diluted in pre-warmed culture medium at 37° C. For samples assessing the reaction-induced drug release, prodrugs were added to the cells first (100 μL final volume per well) in a series of final concentrations ranging from 0.005 to 10 μM followed by addition of PEG-DPTz (20, 40 and 80 μM).
After 72 h incubation at 37° C., cell proliferation was assessed by a CellTiter-Glo©2.0 viability assay according to the manufacturer's instructions. After 15 min incubation at 25° C., the medium was gently measured with Envision 2104 Multilabel Reader (PerkinElmer, USA) to get the luminescent based on quantitation of the ATP present, an indicator of metabolically active cells. The proliferation assay was performed in quadruplet measurements (n=4). EC50 values were derived from the normalized cell growth and Growth/Sigmoidal formula were fitted and generated with Origin 8.0. […] The results are expressed as the mean±standard deviation (n=4).

zebrafish embryos [4] = settings: medium c=0, 1, 10 μM, t=8 h
Method: Zebrafish embryos were used as a model organism to evaluate the activity of uncaged payload molecules in vivo. […] For the fluorescence study, Tz-PSs were implanted into the yolk sacs of zebrafish embryos followed by incubation with ICPr-rsf (c=10 μM). […] Mexiletine is a voltage-gated sodium channel blocker known to induce cardiac arrhythmia, and which has been reported to decrease heart rate.
UV-VIS photospectrometic kinetic measurements were performed on a microplate reader SpectramaX M5 (Molecular Device, USA) in 96-well plates or 1 mL quartz cuvette. Cell proliferation assays were performed on an Envision 2104 Multilabel Reader (PerkinElmer, USA). Zebrafish Imaging and Efficiency Test (Heart Rate Reduction) were performed with Zeiss SteREO Discovery.V8 microscope (Zeiss, Jena, Germany) fitted with a PentaFluor S 120 vertical illuminator and coupled with an Xcite Series 120PC light source.

zebrafish embryos [5] = assay: In vivo uncaging of resorufin fluorescence in zebrafish embryos implanted with Tz-PS beads; settings: c=10 μM, t=8 h, Tz-PS implanted into yolk sacs
[6] = read-out: EC50 cytotoxicity, prodrug combined with PEG-DPTz, A549 cells, prodrug + excess PEG-DPTz (c=80 μM), 72 h

Question: What does the source list for [C-]#[N+]CCCOc1ccc2c3c(cccc13)C(=O)N(CCOCCOCCOCCOC)C2=O [ICPr-O-NA, N-(methyl-PEG4)-4-(3-isocyanopropyl-1-oxy)-1,8-naphthalimide]?
Answer: bimolecular rate constant k2 [1]: 4.0 ± 0.2 M⁻¹ s⁻¹; stability in serum [2]: completely stable in serum for at least three days; apparent first-order rate constant k1,elim in serum [3]: 0.0042 s⁻¹

Question: Which EC50 (A549 lung cancer cells; Homo sapiens, A549, 72 h, read-out: EC50 cytotoxicity, free drug) does the source give for COc1cccc2c1C(=O)c1c(O)c3c(c(O)c1C2=O)C[C@@](O)(C(=O)CO)C[C@@H]3O[C@H]1C[C@H](N)[C@H](O)[C@H](C)O1 [dox, doxorubicin, reference compound] here?
Answer: The EC50 was 144 ± 28 nM.

Question: With “N-(methyl-PEG4)-4-(3-isocyanopropyl-carbamoyl)amino-1,8-naphthalimide [ICPrc-NH-NA]” as the compound, how does the stability in serum [2] read?
Answer: Its stability in serum is “completely stable in serum for at least three days”.

Question: With [C-]#[N+]CCCOC(=O)NC(C)COc1c(C)cccc1C (centres unmarked) [ICPrc-mex, N-(3-isocyanopropyl-1-carbamoyl)mexiletine] as the compound, how does the “heart rate in control fish bearing unmodified beads” value (zebrafish embryos [4]) read?
Answer: The value was “no changes were observed”.

Question: And the “heart rate in fish with implanted Tz-PS” value (zebrafish embryos [4]; normalized to heart rate at t=0 h)?
Answer: The value was “dose-dependent decrease in heart rate”.

Question: With COCCOCCOCCOCCN1C(=O)c2cccc3c(O)ccc(c23)C1=O [HO-NA, N-(methyl-PEG4)-4-hydroxy-1,8-naphthalimide] as the compound, how does the “k1,elim, release of fluorophore from 3-oxopropyl intermediate” value [1] read?
Answer: The value was 0.00016 s⁻¹.

Question: With [C-]#[N+]CCCOc1ccc2nc3ccc(=O)cc-3oc2c1 [ICPr-rsf, 3-isocyanopropyl resorufin ether] as the compound, how does the “fluorescence staining, fish with Tz-PS versus controls with unmodified beads” value (zebrafish embryos [5]) read?
Answer: Its value is 5.2 fold.

Question: For COCCOCCOCCOCCN1C(=O)c2cccc3c(N)ccc(c23)C1=O [Structure H2N-NA, N-(methyl-PEG4)-4-amino-1,8-naphthalimide], which “k1,elim, release of fluorophore from 3-oxopropyl intermediate” value [1] is on record?
Answer: Its value is 5e-05 s⁻¹.

Question: For [C-]#[N+]CCCOC(=O)N1C2CN3C4=C(C(=O)C(N)=C(C)C4=O)C(COC(N)=O)C3(OC)C21 (centres unmarked) [ICPrc-mmC, N-(3-isocyanopropyl-1-carbamoyl)Mitomycin C], which EC50 (A549 lung cancer cells; [6]) is on record?
Answer: The EC50 was 244 ± 17 nM.

Question: With [C-]#[N+]CCCOC(=O)Nc1ccc2c3c(cccc13)C(=O)N(CCOCCOCCOCCOC)C2=O [ICPrc-NH-NA] as the compound, how does the “bimolecular rate constant k2” value [1] read?
Answer: Its value is 1.1 ± 0.2 M⁻¹ s⁻¹.

Question: What about the “apparent first-order rate constant k1,elim in serum” value [3] of the same compound?
Answer: The value was 0.0016 s⁻¹.

Question: For [C-]#[N+]CCCOC(=O)NC1CC(OC2CC(O)(C(=O)CO)Cc3c(O)c4c(c(O)c32)C(=O)c2c(OC)cccc2C4=O)OC(C)C1O (centres unmarked) [ICPrc-dox, N-(3-isocyanopropyl-1-carbamoyl)doxorubicin], which EC50 (A549 lung cancer cells; [6]) is on record?
Answer: Its EC50 is 165 ± 35 nM.
